# Values quoted from earlier work, collected in US20090215102A1, “Method to Assess Breast Cancer Risk” (priority 2005, published 2009).
# Structures can show the parent of a compound that is named as a salt. Where two headings read alike, the source gives them in different places.
# Experiments:
# [1] = in vivo
# [2] = system: rat mammary carcinoma induced by dimethylbenzanthracene (DMBA)
# [3] = system: breast cancer
# [4] = system: estrogen receptors; details: preclinical data
smiles,measurement,setting,value
CC/C(=C(\c1ccccc1)c1ccc(OCCNC)cc1)c1ccccc1 [N-desmethyl tamoxifen],half-life of metabolite suggested by time to steady state,[1],~14 days
CC/C(=C(\c1ccccc1)c1ccc(OCCN(C)C)cc1)c1ccccc1 [Tamoxifen],induction of rat mammary carcinoma induced by DMBA,[2]; rat,inhibits the induction
same,associated toxicity,[3]; particularly women aged 50 or older,"increased risk of endometrial cancer, stroke, pulmonary emboli, and deep vein thrombosis"
same,breast cancer risk reduction,[3]; women with a history of LCIS,56%
same,breast cancer risk reduction,[3]; women with a history of atypical ductal hyperplasia,86%
O=C(c1ccc(OCCN2CCCCC2)cc1)c1c(-c2ccc(O)cc2)sc2cc(O)ccc12 [Raloxifene],clearance following chronic dosing,,40 to 60 L/kg per hour
same,action in uterine and breast tissues,[4],estrogen antagonist
CC/C(=C(\c1ccccc1)c1ccc(OCCN(C)C)cc1)c1ccccc1 [Tamoxifen citrate],antiestrogenic properties in animal test systems,[2]; animal test systems,potent antieskogenic properties
